In PMC12007089, “Applying Isothermal Titration Calorimetry and Saturation Transfer Difference-NMR to Study the Mode of Interaction of Flavan-3-ols with α-Amylase to Understand Their Impact on Starch Hydrolysis” (Journal of Agricultural and Food Chemistry, 2025):
Entries after “also recorded” stand apart in the source; their conditions may differ. Read-outs that look alike come from different tables or passages of the source.

Experiments:
[1] = target: T1, porcine pancreatic α-amylase (Sus scrofa, UniProt P00690); test: Continuous α-amylase activity assay (starch hydrolysis) by ITC; format: biochemical; conditions: for IC50: calculated according to the Cheng–Prussoff equation (eq 8) for a 1 M substrate
T1 sequence (P00690 16-511): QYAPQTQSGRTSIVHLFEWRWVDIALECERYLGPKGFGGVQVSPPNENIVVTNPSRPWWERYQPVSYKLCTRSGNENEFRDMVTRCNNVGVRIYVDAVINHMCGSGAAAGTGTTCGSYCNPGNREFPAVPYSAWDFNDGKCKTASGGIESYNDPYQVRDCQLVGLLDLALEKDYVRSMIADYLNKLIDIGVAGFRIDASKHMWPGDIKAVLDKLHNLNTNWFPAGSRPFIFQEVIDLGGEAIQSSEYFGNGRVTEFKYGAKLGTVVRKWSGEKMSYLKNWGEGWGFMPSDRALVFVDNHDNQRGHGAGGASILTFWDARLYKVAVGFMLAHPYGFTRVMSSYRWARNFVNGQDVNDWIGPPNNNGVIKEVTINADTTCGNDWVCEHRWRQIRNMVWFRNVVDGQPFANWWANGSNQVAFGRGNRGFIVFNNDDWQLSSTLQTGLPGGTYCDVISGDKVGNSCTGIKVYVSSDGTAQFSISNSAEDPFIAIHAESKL
Protocol: Without rebuffering, α-amylase was diluted each day with 0.1 M phosphate buffer/0.04 M NaCl to a final dilution of 1:1000 and stored at 4 °C. […] The starch solution was prepared daily, according to the protocol recommended by Brodkorb et al. with some modifications.[37],[38]
The starch suspension in 0.1 M phosphate buffer/0.04 M NaCl was heated for 5 min under vigorous stirring. After cooling to room temperature, the solution was diluted to a final mass concentration of 40.5 g/L (equivalent to 250 mM based on the molecular weight of the glucose monomers). The concentration of starch is typically expressed as a percentage by weight (%, w/v) due to the inherent polydispersity of the molecule, which is influenced by the source of the natural starch, the manufacturing process, and the preparation of the sample.[28],[39] However, the calculation of inhibition constants requires the use of molarities.
Control experiments were performed with 12 nM α-amylase in 0.1 M phosphate buffer/0.04 M NaCl placed in the sample cell at 310 K, and various volumes (1–10 μL) of starch solution were recurrently injected up to three times with an injection interval of 1600 s. It was elucidated that the optimal volume for reaching the maximal turnover velocity (vmax) was 5 μL. Prior to measurement, α-amylase was incubated with the flavan-3-ols for 60 min at 277 K to ensure that adsorption equilibrium has been reached. This was compulsory as the time required for the ITC system to reach equilibrium and to start measurement varied considerably (10–25 min). To confirm α-amylase stability, controls without an inhibitor were performed at the beginning and the end of each day.
The release of heat during the conversion of starch was monitored, and calculations were performed using Microsoft Excel software. The detected thermal power is directly proportional to the enzymatic rate (v0) (eq 1 and 2).[40],[41] [drawing 1] 1 [drawing 2] 2
The heat rate (dQ/dt) is obtained as a function of time (t) and provides information about the conversion rate (ν). The reaction enthalpy (ΔRHapp) is calculated by integrating the heat peak over its entire extent and dividing the result by the number of substrate molecules converted by the enzyme (eq 3). The substrate concentration at time t ([S]t) is calculated according to eq 4. [drawing 3] 3 [drawing 4] 4
The Michaelis–Menten constant (Km) is defined as the substrate concentration at the time (t0.5) when the reaction rate reaches half-maximum (vmax) (eq 5). [drawing 5] 5
Thus, the thermogram provides all information to calculate inhibition constants. While competitive inhibition (Kic, eq 6) is based on the formation of an enzyme–inhibitor complex (EI), the uncompetitive inhibition (Kiu, eq 7) refers to the binding of a ternary enzyme–substrate–inhibitor complex (ESI). [drawing 6] 6 [drawing 7] 7
The maximal conversion rate vmax and the Michaelis–Menten constant Km are calculated from the control experiments in the absence of an inhibitor. In the presence of an inhibitor [I], the apparent values of [drawing 8] and [drawing 9] have been determined.
The inhibitor concentration that is required to reduce the conversion rate to 50% (IC50) depends on the substrate concentration [S] and is calculated according to the Cheng–Prussoff equation (eq 8).[42] [drawing 10] 8

α-amylase [2] = test system: α-amylase; parameters: method as in PMID 21495725; conditions: cited from earlier work
α-amylase [3] = test system: α-amylase; parameters: method as in PMID 27132823; conditions: cited from earlier work
α-amylase [4] = test system: α-amylase; parameters: method as in PMID 28618113; conditions: α-amylase concentration of 20 μM in the sample cell; cited from earlier work
[5] = target: T1, porcine pancreatic α-amylase; test: CD spectroscopy, change in secondary structure of α-amylase; conditions: for impact on the secondary structure of α-amylase: 90 μM α-amylase, 600 μM flavan-3-ol; for α-helix / β-turn / β-sheet / random coil: α-amylase + polyphenol, 90 µM α-amylase, 600 µM polyphenol; for α-helix: α-amylase alone 8; for β-turn: α-amylase alone 12; for β-sheet: α-amylase alone 32; for random coil: α-amylase alone 48
Protocol: CD spectra were recorded in the range of 240–190 nm with a bandwidth of 1 nm on a Jasco J-815 CD spectrometer equipped with a Peltier unit from Jasco PTC-4238 and a temperature control (F250, Julabo). For CD experiments, 20 μL respective dilutions of the stock solutions for α-amylase, EC, and PC B2 or mixtures of α-amylase and flavan-3-ol, obtained from the ITC cell after interactions experiments (see Section 2.7; 90 μM α-amylase and 600 μM EC/PC B2), were diluted with 60 μL of 0.2 M KCl and filled bubble-free into a cuvette with a light path of 0.1 mm (Hellma Analytics). At 273 K, 40 independent spectra were accumulated in a continuous scanning mode and a speed of 100 nm/min without baseline correction. Data analysis was performed in Excel according to Kaeswurm et al.[34]

α-amylase [6] = target: α-amylase; parameters: method as in PMID 31496243; conditions: substrate Gal-G2-CNP, UV-based, cited from earlier work
[7] = 100 μM flavan-3-ol, 310 K, initial injection, control 727 ± 103
[8] = 100 µM flavan-3-ol, inj. 2, read-out: Kic
[9] = 100 µM flavan-3-ol, inj. 2, read-out: Kiu
[10] = 100 µM flavan-3-ol, inj. 3, read-out: Kic
[11] = 100 µM flavan-3-ol, inj. 3, read-out: Kiu
[12] = competitive inhibition constant, 100 μM flavan-3-ol, 310 K, initial injection (inj. 1), read-out: Kic
[13] = relative to control, 100 μM flavan-3-ol, 12 nM α-amylase, starch, 310 K, initial injection (inj. 1)
[14] = relative to control, 100 μM flavan-3-ol, 310 K, initial injection
[15] = uncompetitive inhibition constant, 100 μM flavan-3-ol, 310 K, initial injection (inj. 1), read-out: Kiu
[16] = PC C1 concentrations of ∼105 μM, 310 K

Row | α(Kic/Kiu) ([1]; 100 μM flavan-3-ol, 310 K) | ΔRHapp [1, 7] [kcal/mol] | vmax ([1]; 100 µM flavan-3-ol, inj. 2) [%] | Ki [1, 8] [µM] | Ki [1, 9] [µM] | vmax ([1]; 100 µM flavan-3-ol, inj. 3) [%] | Ki [1, 10] [µM] | Ki [1, 11] [µM] | Ki [1, 12] [µM] | vmax [1, 13] [%] | (dQ/dt)max [1, 14] [%] | SMILES | IC50 [1] [µM] | Ki [1, 15] [µM] | impact on the secondary structure of α-amylase [5] | α-helix [5] [%] | β-turn [5] [%] | β-sheet [5] [%] | random coil [5] [%] | other results
1 | 0.8 ± 0.4 | 0.162 ± 0.0335 | 78±5 | 447 ± 151 | 403 ± 134 | 79±2 | 458 ± 152 | 399 ± 54 | 356 ± 209 | 79 ± 6 | 80 ± 13 | Oc1cc(O)c2c(c1)O[C@H](c1ccc(O)c(O)c1)[C@@H](O)C2 [CAT, (+)-Catechin] | 431 ± 217 | 431 ± 217 | – | – | – | – | – | –
2 | 0.7 ± 0.2 | 0.156 ± 0.0229 | 65±8 | 216 ± 65 | 208 ± 78 | 70±1 | 539 ± 86 | 240 ± 14 | 155 ± 79 | 66 ± 9 | 66 ± 14 | Oc1cc(O)c2c(c1)O[C@H](c1ccc(O)c(O)c1)[C@H](O)[C@H]2c1c(O)cc(O)c2c1O[C@H](c1ccc(O)c(O)c1)[C@@H](O)C2 [PC B1, procyanidin B1] | – | – | – | – | – | – | – | –
3 | 1.0 ± 0.1 | 0.205 ± 0.00789 | 62±6 | 188 ± 34 | 195 ± 57 | 61±7 | 202 ± 73 | 165 ± 49 | – | 62 ± 4 | 56 ± 4 | Oc1cc(O)c2c(c1)O[C@H](c1ccc(O)c(O)c1)[C@H](O)[C@H]2c1c(O)cc(O)c2c1O[C@H](c1ccc(O)c(O)c1)[C@H](O)C2 [PC B2, procyanidin B2] | – | – | No significant impact; also recorded: did not induce significant changes | 14 | 15 | 23 | 48 | –

Row | SMILES | α(Kic/Kiu) ([1]; 100 μM flavan-3-ol, 310 K) | ΔRHapp [1, 7] [kcal/mol] | vmax ([1]; 100 µM flavan-3-ol, inj. 2) [%] | Ki [1, 8] [µM] | Ki [1, 9] [µM] | vmax ([1]; 100 µM flavan-3-ol, inj. 3) [%] | Ki [1, 10] [µM] | Ki [1, 11] [µM] | Ki [1, 12] [µM] | vmax [1, 13] [%] | (dQ/dt)max [1, 14] [%] | IC50 [1] [µM] | Ki [1, 15] [µM] | impact on the secondary structure of α-amylase [5] | α-helix [5] [%] | β-turn [5] [%] | β-sheet [5] [%] | random coil [5] [%] | other results
4 | Oc1cc(O)c2c(c1)O[C@H](c1ccc(O)c(O)c1)[C@H](O)C2 [EC, (−)-Epicatechin] | 0.7 ± 0.1 | 0.195 ± 0.0127 | 77±5 | 305 ± 162 | 389 ± 41 | 76±3 | 291 ± 80 | 330 ± 52 | – | 78 ± 4 | 82 ± 8 | – | – | No significant impact; also recorded: did not induce significant changes | 14 | 15 | 23 | 48 | reduction / decrease in α-amylase activity (α-amylase [2]): 10%; inhibition of α-amylase compared to other phenolic compounds and the apple extract (α-amylase [3]): weakest inhibition; binding to α-amylase by ITC (α-amylase [4]): weak binder; Ki (α-amylase [6]; read-out: Kic): 88 ± 37 µM; Ki (α-amylase [6]; read-out: Kiu): 231 ± 45 µM
5 | Oc1cc(O)c2c(c1)O[C@H](c1ccc(O)c(O)c1)[C@H](O)[C@H]2c1c(O)cc(O)c2c1O[C@H](c1ccc(O)c(O)c1)[C@H](O)[C@H]2c1c(O)cc(O)c2c1O[C@H](c1ccc(O)c(O)c1)[C@H](O)C2 [PC C1, procyanidin C1] | 0.9 ± 0.1 | 0.143 ± 0.00789 | 50±5 | 143 ± 56 | 102 ± 19 | 59±2 | 395 ± 78 | 145 ± 14 | – | 50 ± 4 | 44 ± 4 | 103 ± 16 | 103 ± 16 | – | – | – | – | – | reduction in α-amylase activity ([1]; 100 μM PC C1): 50%; (dQ/dt)max [1, 16]: 23 ± 0%; ΔRHapp [1, 16]: 0.0406 ± 0.01 kcal/mol; vmax ([1]; PC C1 concentrations of ∼105 μM, 310 K, value printed in brackets): (98 ± 21) %
